Laboratory results as given in patent publication US20040260272A1, “Method and system for intravesicular delivery of therapeutic agents” (priority 2002, published 2004).

Assays:
[1] = In vitro release of Ciprofloxacin from cast hydrophilic polyurethane film in phosphate buffer; assay type: physicochemical; settings: core loading 6.0 wt %, 37 C
Description: A cast film of polyurethane containing Ciprofloxacin was made by reacting hydrophilic polyurethane prepolymer (Urepol 1002A obtained from Envirochem) with distilled water. The reacting mixture was spread in a thin film over a glass petri dish. The film was cured overnight and dried to leave a thin film of polyurethane containing Ciprofloxacin. The resultant drug carrying film was further vacuum-dried. The drug loading was measured to be 0.06 gms per 1 gm of coated film, i.e. 6.0 wt %.
The drug carrying film was placed in phosphate buffer at 37 C and a pH of 7.4 and the Ciprofloxacin in vitro release was measured.

[2] = In vitro release of Thio-TEPA from polyurethane-coated polyurethane foam substrate in phosphate buffer; assay type: physicochemical; settings: core loading 0.9 wt %, 37 C
Description: A reticulated TDI/polyether based foam (SIF grade obtained from Foamex) was used as a scaffold or substrate. The foam substrate was 4″×4″ (10.2 cm×10.2 cm) square sample with a thickness of ¼″ or 0.635 cm with a volume of 65.5 cm^3 and weighed 1.2 g, giving a density of 0.0183 gms/cc. 2.42 grams of hydrophilic polyurethane prepolymer (Urepol 1002A obtained from Envirochem) and 64 milligrams of Thio-TEPA was diluted in 6 ml of DMF. The foam was dipped into the solution mixture of polyurethane prepolymer, Thio-TEPA and DMF. The Thio-TEPA containing solution mixture of polyurethane prepolymer and DMF was then distributed and spread over the foam substrate. During the spreading and distribution, it was ensured that solution mixture contacted the foam substrate from all sides and coated both the surface and internal pores of the foam substrate.
The foam substrate with coated solution mixture was held overnight below 8° C. The coating was cured by the reaction of the ambient moisture with the available reactive isocyanate in the prepolymer. After the overnight curing, the foam substrate with coated solution mixture was vacuum-dried to remove residual solvents to leave a coating of polyurethane containing Thio-TEPA.
The final weight of the foam substrate and the drug loaded coating was 3.24 gms. Density of the coated foam substrate was 0.0495 gms/cc. The drug loading was 0.009 gms per 1 gm of coated foam substrate, i.e. 0.9 wt %. The drug entrapment efficiency was 50% calculated from a final measures drug loading of 0.9 wt % and a theoretical drug loading of 1.8 wt %. The weight of the drug in the final coated foam substrate was 0.029 gms or 29 mgs with the drug density on the coated foam substrate being 0.44 mgs per cc.
The coated foam substrate was placed in phosphate buffer at 37 C, and a pH of 7.4 and the Thio-TEPA in vitro release was measured.

[3] = Immobilization of collagenase in composite foam polymer system; settings: composite foam (hydrophobic polyurethane scaffold with hydrophilic polyurethane coating)

With O=C(O)c1cn(C2CC2)c2cc(N3CCNCC3)c(F)cc2c1=O [Ciprofloxacin] the “Cumulative Release, % at Day 1” value ([1]; pH 7.4, Day 1) was 15.7%, the “Cumulative Release, % at Day 3” value ([1]; pH 7.4, Day 3) was 16.8% and the “Cumulative Release, % at Day 4” value ([1]; pH 7.4, Day 4) was 29.28%.

With S=P(N1CC1)(N1CC1)N1CC1 [Thio-Tepa, Thio-TEPA] the “Cumulative Release, % at Day 1” value ([2]; pH 7.4, Day 1) was 11.9%, the “Cumulative Release, % at Day 3” value ([2]; pH 7.4, Day 3) was 43.7% and the “Cumulative Release, % at Day 6” value ([2]; pH 7.4, Day 6) was 66.6%.

For collagenase, the “enzymatic activity after immobilization within the polymer system” value [3] was “retain enzymatic activity”.
